According to ChEMBL document CHEMBL1129482, “Synthesis and anti-herpes virus activity of 2'-deoxy-4'-thiopyrimidine nucleosides” (J Med Chem, 1996):

Tests used:
Vero [1] = assay: Inhibitory dose required to reduce the growth of vero cells by 50% over a 4 day period.; format: functional, Chlorocebus sabaeus
Human betaherpesvirus 5 = assay: Inhibitory activity against human cytomegalovirus (HCMV) strain AD169 in MRC-5 cells.; format: functional, organism-based; settings: Human betaherpesvirus 5, MRC5
[2] = Inhibitory activity against herpes simplex virus type 2 (HSV 2) strain 186 in Vero cells.; format: functional, cell-based
Human alphaherpesvirus 3 = assay: Inhibitory activity against varicella zoster virus (VZV) strain G31 in MRC-5 cells.; format: functional, organism-based; settings: Human alphaherpesvirus 3, MRC5
Human alphaherpesvirus 1 = assay: Inhibitory activity against herpes simplex virus type 1 (HSV-1) strain SC16 in Vero cells.; format: functional, organism-based; settings: Human alphaherpesvirus 1, Vero
Vero [3] = assay: Inhibitory dose required to reduce the growth of Vero cells by 50% over a 4 day period; format: functional, Chlorocebus sabaeus
MRC5 = assay: Inhibitory activity against varicella zoster virus (VZV) strain G31 was determined in MRC-5 cells; Toxicity at 40 uM; format: functional, cell-based, Homo sapiens
Vero [4] = assay: Inhibitory activity against herpes simplex virus type 1 (HSV 1) strain SC16 was determined in Vero cells; Range is 0.17-0.5 uM; format: functional, cell-based; settings: Chlorocebus sabaeus
Vero [5] = assay: Inhibitory activity against herpes simplex virus type 2 (HSV 2) strain 186 was determined in Vero cells; Range is 2-5 uM; format: functional, cell-based; settings: Chlorocebus sabaeus

SMILES	IC50 [2] [µM]	IC50 (Human alphaherpesvirus 1) [µM]	CCID50 (Vero [1]) [µM]	IC50 (Human betaherpesvirus 5) [µM]	IC50 (Human alphaherpesvirus 3) [µM]	CCID50 (Vero [3]) [µM]	IC50 (MRC5)	IC50 (Vero [4]) [µM]	IC50 (Vero [5]) [µM]
CC(C)(C)c1cn([C@H]2CC(O)C(CO)S2)c(=O)[nH]c1=O (stereo partly specified)	> 100	–	475	> 100	–	–	–	–	–
O=c1[nH]c(=O)n([C@H]2CC(O)C(CO)S2)cc1/C=C/Cl (stereo partly specified)	> 100	0.5	>500	> 100	> 10	–	–	–	–
O=C1NC(=O)N(C2CC(O)C(CO)S2)C2CCCC12 (stereo unspecified)	> 100	–	>500	> 100	> 40	–	–	–	–
O=c1[nH]c(=O)n([C@H]2CC(O)C(CO)S2)cc1C12CC3CC(CC(C3)C1)C2 (stereo partly specified)	> 100	> 100	>125	> 100	–	–	Toxic	–	–
N#Cc1cn([C@H]2CC(O)C(CO)S2)c(=O)[nH]c1=O (stereo partly specified)	> 100	> 100	>500	> 100	> 100	–	–	–	–
C#Cc1cn([C@H]2CC(O)C(CO)S2)c(=O)[nH]c1=O (stereo partly specified)	> 10	6.6	33	9.3	5.5	–	–	–	–
C/C=C/c1cn([C@H]2CC(O)C(CO)S2)c(=O)[nH]c1=O (stereo partly specified)	> 20	> 2	>100	> 100	0.46	–	–	–	–
O=c1[nH]c(=O)n([C@H]2CC(O)C(CO)S2)cc1C(F)(F)F (stereo partly specified)	15	< 1.6	139	> 10	–	–	–	–	–
COC(C)c1cn(C2CC(O)C(CO)S2)c(=O)[nH]c1=O (stereo unspecified)	> 100	> 100	>500	> 100	> 40	–	–	–	–
O=c1[nH]c(=O)n([C@H]2CC(O)C(CO)S2)cc1C=C(F)F (stereo partly specified)	> 100	–	>500	> 100	> 10	–	–	–	–
O=c1[nH]c(=O)n([C@H]2CC(O)C(CO)S2)cc1C(F)=C(Cl)Cl (stereo partly specified)	–	> 50	>500	> 100	> 100	–	–	–	–
CCc1cn([C@H]2CC(O)C(CO)S2)c(=O)[nH]c1=O (stereo partly specified)	–	–	>100	138	0.99	–	–	0.17	2
O=c1[nH]c(=O)n([C@@H]2CC(O)C(CO)S2)cc1C(F)(F)F (stereo partly specified)	> 100	–	>500	> 100	–	–	–	–	–
O=c1[nH]c(=O)n([C@H]2CC(O)C(CO)S2)cc1C1CC1 (stereo partly specified)	> 100	1.6	>500	> 100	0.5	–	–	–	–
Nc1nc2c(ncn2COCCO)c(=O)[nH]1 [ACYCLOVIR]	1.7	1.8	>500	> 85	–	–	–	–	–
O=c1[nH]c(=O)n([C@H]2C[C@H](O)[C@@H](CO)O2)cc1/C=C/Br [BRIVUDINE]	10	1.4	>250	> 100	< 1	–	–	–	–
Nc1nc(O)c2ncn(CCC(CO)CO)c2n1 [PENCICLOVIR]	12.8	3.9	–	> 100	78.7	–	–	–	–

The next lines start with results.

IC50 [2] [µM]	IC50 (Human alphaherpesvirus 1) [µM]	SMILES	CCID50 (Vero [1]) [µM]	IC50 (Human betaherpesvirus 5) [µM]	IC50 (Human alphaherpesvirus 3) [µM]	CCID50 (Vero [3]) [µM]	IC50 (MRC5)	IC50 (Vero [4]) [µM]	IC50 (Vero [5]) [µM]
> 100	3.4	C=C(C)c1cn([C@H]2CC(O)C(CO)S2)c(=O)[nH]c1=O (stereo partly specified)	–	> 100	< 40	>500	–	–	–
> 100	0.7	O=c1[nH]c(=O)n([C@H]2CC(O)C(CO)S2)cc1CCF (stereo partly specified)	>500	> 100	0.12	–	–	–	–
27	18	O=c1[nH]c(=O)n([C@H]2CC(O)C(CO)S2)cc1[N+](=O)[O-] (stereo partly specified)	476	–	13	–	–	–	–
> 100	–	O=c1[nH]c(=O)n([C@H]2CC(O)C(CO)S2)cc1CC(F)(F)F (stereo partly specified)	>500	> 100	> 40	–	–	–	–
> 100	> 100	COc1cn(C2CC(O)C(CO)S2)c(=O)[nH]c1=O (stereo unspecified)	–	> 100	> 100	–	–	–	–
> 100	> 100	O=c1[nH]c(=O)n([C@@H]2CC(O)C(CO)S2)cc1[N+](=O)[O-] (stereo partly specified)	–	–	> 100	–	–	–	–
> 100	–	COCCc1cn([C@H]2CC(O)C(CO)S2)c(=O)[nH]c1=O (stereo partly specified)	–	> 100	> 10	–	–	–	–
> 100	> 100	C#CCc1cn([C@H]2CC(O)C(CO)S2)c(=O)[nH]c1=O (stereo partly specified)	492	100	1.4	–	–	–	–
> 100	40	CC(O)c1cn(C2CC(O)C(CO)S2)c(=O)[nH]c1=O (stereo unspecified)	>500	> 100	12	–	–	–	–
10	0.8	O=c1[nH]c(=O)n([C@H]2CC(O)C(CO)S2)cc1I (stereo partly specified)	>100	4	3.5	–	–	–	–
> 100	–	CCC(C)c1cn(C2CC(O)C(CO)S2)c(=O)[nH]c1=O (stereo unspecified)	>500	> 100	–	–	–	–	–
> 100	–	CSCc1cn(C2CC(O)C(CO)S2)c(=O)[nH]c1=O (stereo unspecified)	>500	> 100	–	–	–	–	–
> 100	0.15	O=c1[nH]c(=O)n(C2CC(O)C(CO)S2)cc1CCCl (stereo unspecified)	>200	–	0.3	–	–	–	–
> 10	6.8	CCCc1cn([C@H]2CC(O)C(CO)S2)c(=O)[nH]c1=O (stereo partly specified)	>100	> 100	3	–	–	–	–
> 100	5.3	O=c1[nH]c(=O)n([C@H]2CC(O)C(CO)S2)cc1Br (stereo partly specified)	>500	0.44	> 40	–	–	–	–
> 100	–	CCc1cn([C@@H]2CC(O)C(CO)S2)c(=O)[nH]c1=O (stereo partly specified)	>100	> 100	> 100	–	–	–	–
> 10	> 10	COCc1cn(C2CC(O)C(CO)S2)c(=O)[nH]c1=O (stereo unspecified)	–	> 100	> 10	–	–	–	–
> 10	> 10	O=c1[nH]c(=O)n(C2CC(O)C(CO)S2)cc1F (stereo unspecified)	92	> 100	> 100	–	–	–	–
> 10	> 10	CC(=O)c1cn(C2CC(O)C(CO)S2)c(=O)[nH]c1=O (stereo unspecified)	351	> 100	> 10	–	–	–	–
> 100	1.4	C=Cc1cn([C@H]2CC(O)C(CO)S2)c(=O)[nH]c1=O (stereo partly specified)	>500	93	1.1	–	–	–	–
> 100	> 100	O=c1[nH]c(=O)n([C@H]2CC(O)C(CO)S2)cc1Cl (stereo partly specified)	59	0.2	> 40	–	–	–	–
> 100	2.2	CC(C)c1cn([C@H]2CC(O)C(CO)S2)c(=O)[nH]c1=O (stereo partly specified)	>500	> 100	4.1	–	–	–	–
